Patent US10869875B2, “Oxysterols and Hedgehog signaling” (MAX BIOPHARMA, INC., priority 2015, dated 2020)

Legend:
[1] = system: Hedgehog target gene Gli1; assay: Expression of Hedgehog target gene Gli1 in NIH3T3 cells (quantitative RT-PCR); type: cell-based; conditions: for Gli1 gene expression relative to CM only / Hedgehog signaling (Gli1 gene expression) compared to the control / gene expression of the Hedgehog target gene Gli1 / Hedgehog signaling (Gli1 gene expression): NIH3T3 cells; for Hedgehog signaling (Gli1 gene expression) compared to the control: without CM; for gene expression of the Hedgehog target gene Gli1: in CM, 5 μM and 10 μM; for gene expression of the Hedgehog target gene Gli1 / Hedgehog signaling (Gli1 gene expression): FIG. 7; for Hedgehog signaling (Gli1 gene expression): in the absence of CM
Description: The compounds described herein were tested on cell cultures to assess their effects on Hedgehog target genes PTCH and Gli1. Conditioned medium (CM) was collected from CAPAN-1 human pancreatic tumor cells grown to confluence in DMEM containing 10%0/fetal bovine serium (FBS) and contains Hh proteins that activate the Hh pathway in cells receiving the CM. After 7 days of incubation of confluent cells with the described medium, CM was collected, spun for 5 minutes at 1800 rpm to remove dead cells and debris, and then frozen at −80° C. For treating cells, CM was thawed and diluted 1:2 to 1:6 with DMEM containing 5% FBS. NIH3T3 cells, HepG2 and SUFU−/−MEF cells were cultured in 12-well plates with DMEM containing 10% FBS. The cells were then treated with DMEM containing 5% FBS or CM in the presence or absence of the compounds prepared in DMSO when they reach confluence. Quantitative RT-PCR was then performed according to the following approach. After 72 to 96 hours of the treatments, the cells were lysed and subjected to RNA extraction with RNease Plus Min kit (Qiagen). A portion of RNA from each well was subjected to Reverse Transcription (RT) using iScript Reverse Transcription Supermix (BioRad). QPCR was performed to test the expression of Hh target genes PTCH and Gli1 using IQ SYBR Green Supermix (BioRad).

[2] = system: connective tissue growth factor (CTGF); assay: TGFβ1 induced expression of CTGF in NIH3T3 cells (Q-RT-PCR); type: cell-based; conditions: 10 uM, recombinant human TGFβ1 at 20 ng/ml, 48 hours, FIG. 8
Description: NIH3T3 cells were treated with recombinant human TGFβ1 at 20 ng/ml in the absence or presence of compound 21 at 10 uM. After 48 hours, RNA was extracted and analyzed by Q-RT-PCR for the expression of connective tissue growth factor (CTGF), a tumorigenic gene.

[3] = 10 μM, in the presence of CM, FIG. 6, result in words

| SMILES | Gli1 gene expression relative to CM only [1, 3] | Hedgehog signaling (Gli1 gene expression) compared to the control ([1]; 10 μM, FIG. 6) | gene expression of the Hedgehog target gene Gli1 [1] | Hedgehog signaling (Gli1 gene expression) [1] | further results |
| --- | --- | --- | --- | --- | --- |
| C[C@]12CC[C@H]3[C@@H](CC=C4C[C@@H](O)CC[C@@]43C)[C@@H]1CC[C@@H]2[C@](C)(O)CCc1ccc(F)cc1 [compound 4, (3S,8S,9S,10R,13S,14S,17S)-17-((R)-4-(4-fluorophenyl)-2-hydroxybutan-2-yl)-10,13-dimethyl-2,3,4,7,89,10,11,12,13,14,15,16,17-tetradecahydro-1H-cyclopenta[a]phenanthren-3-ol] | greatly decreased | did not show this effect |  |  |  |
| C[C@]12CC[C@H]3[C@@H](CC=C4C[C@@H](O)CC[C@@]43C)[C@@H]1CC[C@@H]2[C@](C)(O)CCc1cccnc1 [compound 21, (3S,8S,9S,10R,13S,14S,17S)-17-((R)-2-hydroxy-4-(pyridin-3-yl)butan-2-yl)-10,13-dimethyl-2,3,4,7,8,9,10,11,12,13,14,15,16,17-tetradecahydro-1H-cyclopenta[a]phenanthren-3-ol] |  |  | decreased | did not | TGFβ1 induced expression of CTGF [2]: inhibited |
| C[C@]12CC[C@H](O)C[C@@H]1CC[C@@H]1[C@@H]2CC[C@@]2(C)[C@H]1CC[C@@H]2[C@](C)(O)CCc1ccc(F)cc1 [compound 6, (3S,5S,8R,9S,10S,13S,14S,17S)-17-((R)-4-(4-fluorophenyl)-2-hydroxybutan-2-yl)-10,13-dimethylhexadecahydro-1H-cyclopenta[a]phenanthren-3-ol] | greatly decreased | did not show this effect |  |  | Gli1 gene expression relative to CM only ([1]; 5 μM, in the presence of CM, FIG. 6, result in words): greatly decreased; inhibition of Gli1 expression vs. compound 4 ([1]; comparison with compound 4 (C5-C6 double bond, C20 R-stereochemistry), FIG. 1): increased; inhibition of Gli1 expression vs. compound 18 ([1]; comparison with compound 18 (C20 S-stereochemistry, C5-C6 single bond), FIGS. 1 and 3): increased |
| C[C@]12CC[C@H]3[C@@H](CC=C4C[C@@H](O)CC[C@@]43C)[C@@H]1CC[C@@H]2[C@@](C)(O)CCc1ccc(F)cc1 [Oxy45, reference compound] |  | stimulated Hedgehog signaling |  |  | Gli1 gene expression relative to CM only ([1]; 5 μM, in the presence of conditioned medium (CM), FIG. 6): more than 2 fold; Gli1 gene expression relative to CM only ([1]; 10 μM, in the presence of conditioned medium (CM), FIG. 6): more than 2 fold |
| C[C@]12CC[C@H]3[C@@H](CC=C4C[C@@H](O)CC[C@@]43C)[C@@H]1CC[C@@H]2[C@@](C)(O)CCc1cccnc1 [Oxy43, reference compound] |  |  | greatly increased | stimulated Hedgehog signaling |  |
